Series [1] deals with individuals with type 2 diabetes. It is filed as in vivo, human. Particulars: for Mean PGnadir, estimated geometric mean: all participants; for Time to recovery from PGnadir to PG5.5 mmol/l, estimated geometric mean: constant i.v. glucose 5.5 mg kg^−1 min^−1; for Time to recovery from PGnadir to PG5.5 mmol/l, estimated geometric mean / Glucose needed from PGnadir to PG5.5 mmol/l, estimated geometric mean: individuals with PG <3.3 mmol/l at initiation of recovery; for Time to decline from PG5.5 mmol/l to PG3.9 mmol/l, estimated geometric mean: individuals with PG decline to <3.0 mmol/l and/or hypoglycaemia symptoms; for Time to decline from PG5.5 mmol/l to PG3.0 mmol/l, estimated geometric mean: individuals with PG decline to <3.0 mmol/l; for Mean PGnadir in the subgroup analysis: subgroup PGnadir <3.0 mmol/l and/or symptoms. As for the experimental part: During the two treatment periods, participants received once-weekly icodec for 6 weeks or once-daily glargine U100 for 11 days in randomised order. […] Treatment periods were separated by 35–49 days of washout following icodec and 4–11 days of washout following glargine U100. Icodec (4200 nmol/ml; Novo Nordisk, Bagsværd, Denmark) was administered s.c. in the left thigh at 20:00 hours by qualified site staff using a NovoPen 4 pen injector (Novo Nordisk). […] At the start of week 1, a one-time additional 100% icodec dose was administered to accelerate time to steady state, followed by a normal dose at week 2, a double dose at week 3 (prior to hypoglycaemia induction), no dose at week 4 (due to the double dose given the week before), a normal dose at week 5, and a triple dose at week 6 (prior to hypoglycaemia induction). Insulin glargine U100 (100 U/ml [600 nmol/ml]; Sanofi, Paris, France) was administered s.c. in the right thigh at 09:00 hours by qualified site staff using a SoloStar pen injector (Sanofi). A normal dose of once-daily glargine U100 was established during run in. Glargine U100 was administered at a normal dose for 3 days followed by a double dose on day 4 (prior to hypoglycaemia induction), no dose on day 5 (due to the double dose given the day before), then a normal dose for 5 days, and a triple dose on day 11 (prior to hypoglycaemia induction).
Hypoglycaemia induction was carried out during weeks 3 (double dose) and 6 (triple dose) for icodec and on days 4 (double dose) and 11 (triple dose) for glargine U100 while at steady state. To initiate hypoglycaemia induction, participants should not have experienced hypoglycaemia (PG <3.9 mmol/l) within 24 h or have any relevant medical condition that could confound the outcomes or pose unacceptable risk to the participant. Hypoglycaemia induction (Fig. 1b) was initiated at 16:00 hours 2 days after double/triple icodec dosing (44 h post dose) and on the day of double/triple glargine U100 dosing (7 h post dose). These timings were selected since they approximated the expected time of maximum glucose-lowering effect for both insulin products based on pharmacokinetic/pharmacodynamic modelling performed prior to the trial. For 7.5 h prior to hypoglycaemia induction, PG was kept at 5.5 mmol/l by variable i.v. infusion of glucose (20% wt/vol) or human soluble insulin (100 U/ml in 99.6 ml saline [154 mmol/l NaCl]). PG was measured by a Super GL2 Glucose Analyzer (Dr. Müller Gerätebau, Freital, Germany). Insulin infusion was terminated 60 min prior to hypoglycaemia induction at the latest. PG was maintained at 5.5 mmol/l±20% from 60 min to 30 min prior to hypoglycaemia induction and at 5.5 mmol/l±10% during the last 30 min prior to hypoglycaemia induction. Hypoglycaemia induction was initiated by terminating glucose infusion, thereby allowing PG to decline towards the minimum (nadir) PG target level of no less than 2.5 mmol/l. The handling of alternative scenarios, e.g. PGnadir >2.5 mmol/l, slow PG decline towards hypoglycaemia or slow recovery from hypoglycaemia, is described in electronic supplementary material (ESM) Methods. The investigator recorded if the PGnadir was <3.0 mmol/l or ≥3.0 mmol/l with hypoglycaemic symptoms. The PGnadir level was maintained for 15 min by variable i.v. glucose as needed. Subsequently, euglycaemia was restored by constant i.v. glucose (5.5 mg kg^−1 min^−1) until PG was 5.5 mmol/l, which was maintained until the next morning (between 07:00 hours and 09:00 hours) by variable i.v. glucose. During hypoglycaemia induction, participants remained fasted (except for water ad libitum) and stayed in a supine or semi-supine position (except when cognitive tests were performed). Participants stayed at the clinical site for at least 12 h following each hypoglycaemia induction experiment. […]

Series [2] shares this test system. The experiment in a line: Hypoglycaemia awareness question 'Do you feel hypo?' during hypoglycaemia induction. As to conditions: subgroup. It is filed as in vivo, human. Here is the method:
Hypoglycaemia awareness was determined by asking the question, ‘Do you feel hypo?’, to the participant.

For series [3], the system named is glucagon. The experiment in a line: Counterregulatory hormone response: plasma glucagon (ELISA). The format is in vivo, human. As to conditions: plasma, subgroup. Here is the method:
(§1) Plasma concentrations of glucagon were measured by an enzyme-linked immunosorbent assay (Mercodia AB, Uppsala, Sweden). Plasma concentrations of adrenaline (epinephrine) and noradrenaline (norepinephrine) were measured by liquid chromatography-mass spectrometry (Thermo Fisher Scientific, Dreieich, Germany). Serum concentrations of cortisol and growth hormone were measured by electrochemiluminescent immunoassays (Roche Diagnostics, Mannheim, Germany).
(An ELISA detects its analyte on a solid surface through an enzyme-linked reagent.)

In series [4] the test system is adrenaline (epinephrine). The series can be described thus: Counterregulatory hormone response: plasma adrenaline (LC-MS). The format is in vivo, human. Particulars: plasma, subgroup. As for the experimental part:
as §1

The subject of series [5] is noradrenaline (norepinephrine). The series can be described thus: Counterregulatory hormone response: plasma noradrenaline (LC-MS). It is filed as in vivo, human. As to conditions: plasma, subgroup. As for the experimental part: as §1
Series [6] deals with cortisol. The series can be described thus: Counterregulatory hormone response: serum cortisol (electrochemiluminescent immunoassay). The format is in vivo, human. As to conditions: serum, subgroup; for Cortisol at PGnadir, estimated geometric mean: n=19 icodec. As for the experimental part: as §1
The subject of series [7] is growth hormone. The series can be described thus: Counterregulatory hormone response: serum growth hormone (electrochemiluminescent immunoassay). The format is in vivo, human. As to conditions: serum, subgroup; for Growth hormone at PGnadir, estimated geometric mean: n=19 icodec. Here is the method:
as §1

The test system of series [8] is individuals with type 2 diabetes. Particulars: in vivo.
Description: Safety assessments during the trial included adverse events (AEs), hypoglycaemic episodes (other than those induced), vital signs (other than those assessed during hypoglycaemia induction), electrocardiograms, physical examinations and clinical laboratory assessments (haematology, biochemistry and urinalysis).
AEs and hypoglycaemic episodes (other than those induced) during the treatment periods were summarised. The end of each treatment period was defined as 7 days after the last icodec dose and 2 days after the last glargine U100 dose. […] Hypoglycaemic episodes were classified as level 1 (PG <3.9 mmol/l and ≥3.0 mmol/l), level 2 (PG <3.0 mmol/l) and level 3 (severe cognitive impairment requiring assistance for recovery) [20].
Series [9] relates to type 1 diabetes. As to conditions: cited from earlier work. The text has this:
In addition, the low insulin receptor binding affinity of icodec contributes to its long half-life by reducing the clearance rate, as insulin is mainly cleared by internalisation following binding to and activation of the insulin receptor [9, 10]. In case of excess amounts of icodec throughout the body, e.g ...

Where [10] appears, read: double dose, n=15 icodec, 13 glargine U100.
Setting [11] is: double dose, n=20 icodec, 19 glargine U100.
Setting [12] is: double dose, n=17 icodec, 15 glargine U100.
Where [13] appears, read: triple dose, n=18 icodec, 22 glargine U100.
[14] abbreviates: triple dose, n=20 icodec, 29 glargine U100.
Setting [15] is: triple dose, n=20 icodec, 28 glargine U100.

Where two headings read alike, the source gives them in different places. Where only a bound is given, the exact number is not on record here.

As for insulin glargine U100, in series [1] (constant i.v. glucose infusion at 5.5 mg kg^−1 min^−1, double and triple doses), the “Time to full recovery from hypoglycaemia” value was at most 30 min. Besides, the “Mean PGnadir, estimated geometric mean” value in series [1] (double dose, n=43 icodec, 42 glargine U100) was 3.3 mmol/L; in [1] (triple dose, n=38 icodec, 40 glargine U100), 2.9 mmol/L. The “Time to recovery from PGnadir to PG5.5 mmol/l, estimated geometric mean” value in [1] (setting [10]) was 21.0 min; in [1] (setting [13]) it was 23.3 min. The “Glucose needed from PGnadir to PG5.5 mmol/l, estimated geometric mean” value is recorded as 111 mg/kg in [1] (setting [10]) and 115 mg/kg in [1] (setting [13]). The entries for the “Time to decline from PG5.5 mmol/l to PG3.9 mmol/l, estimated geometric mean” value in [1] (setting [11]) and in series [1] (setting [14]) were 1.1 h and 0.7 h, respectively. In addition, the figures for the “Time to decline from PG5.5 mmol/l to PG3.0 mmol/l, estimated geometric mean” value in [1] (setting [12]) and in [1] (setting [15]) were 4.5 h and 2.2 h, respectively. Also, the “Mean PGnadir in the subgroup analysis” value stood at 2.9 mmol/L in [1] (double dose) and 2.7 mmol/L in [1] (triple dose). Further, the “Proportion of individuals answering 'Yes' to 'Do you feel hypo?'” value was 13.3% in series [2] (double dose, at PG3.0 mmol/l, n=9/17 icodec, 2/15 glargine U100); 52.6% in series [2] (double dose, at PGnadir, n=14/20 icodec, 10/19 glargine U100); 28.6% in series [2] (triple dose, at PG3.0 mmol/l, n=5/20 icodec, 8/28 glargine U100); 51.7% in series [2] (triple dose, at PGnadir, n=9/20 icodec, 15/29 glargine U100). Further, the “Glucagon at PG3.0 mmol/l, estimated geometric mean” value in series [3] (setting [12]) is 47.7 ng/L; in [3] (setting [15]), 51.6 ng/L. The “Glucagon at PGnadir, estimated geometric mean” value in series [3] (double dose, n=19 icodec, 19 glargine U100) was 53.1 ng/L; in series [3] (setting [14]), 59.1 ng/L. Besides, the “Adrenaline at PG3.0 mmol/l, estimated geometric mean” value was 528.3 pmol/L in [4] (setting [12]) and 312.2 pmol/L in [4] (setting [15]). Also, the “Adrenaline at PGnadir, estimated geometric mean” value in series [4] (setting [11]) is 590.9 pmol/L; in series [4] (setting [14]), 570.9 pmol/L. Besides, the “Noradrenaline at PG3.0 mmol/l, estimated geometric mean” value in series [5] (setting [12]) was 853.0 pmol/L; in [5] (setting [15]), 843.0 pmol/L. Further, the “Noradrenaline at PGnadir, estimated geometric mean” value in series [5] (setting [11]) was 907.4 pmol/L; in [5] (setting [14]), 890.5 pmol/L. Besides, the “Cortisol at PG3.0 mmol/l, estimated geometric mean” value in series [6] (setting [12]) is 153.8 nmol/L; in series [6] (setting [15]), 122.9 nmol/L. For the same substance, the “Cortisol at PGnadir, estimated geometric mean” value was 300.3 nmol/L in series [6] (double dose, 19 glargine U100) and 197.6 nmol/L in [6] (triple dose, 29 glargine U100). For the same substance, the figures for the “Growth hormone at PG3.0 mmol/l, estimated geometric mean” value in series [7] (setting [12]) and in series [7] (setting [15]) were 4.1 µg/L and 2.4 µg/L, respectively. Further, the “Growth hormone at PGnadir, estimated geometric mean” value is 3.5 µg/L in series [7] (double dose, 19 glargine U100) and 3.5 µg/L in [7] (triple dose, 29 glargine U100). Besides, the AE rate in series [8] was 21.3 AEs per participant-year of exposure. Also, the “Duration of level 2 hypoglycaemic episodes, mean±SD” value in series [8] was determined as 37.7 ± 15.0 min. Also, in [8], the “Number of AEs reported” value was determined as 33 AEs. Besides, the “Rate of clinically significant hypoglycaemic episodes (level 2, PG <3.0 mmol/l)” value in [8] is recorded as 3.0 episodes per participant-year of exposure. In series [8], the “Severe hypoglycaemic episodes (level 3)” value is listed as “no severe hypoglycaemic episodes”. Further, the “Participants with clinically significant hypoglycaemia” value in [9] (in vivo) is “almost all participants”.

For the substance insulin detemir, the “Participants with clinically significant hypoglycaemia” value in [9] (in vivo) was 78%.

In the case of neutral protamine Hagedorn insulin, the “Participants with clinically significant hypoglycaemia” value in [9] (in vivo) is on record as 78%.

For insulin degludec, the “Participants with clinically significant hypoglycaemia” value in [9] (type 1 diabetes, triple doses, ref [8], [24]) is “almost all participants”.
